Details of data set [1]: species or system rats. Particulars: rat, in vivo. The procedure: The effect of S-NOCCs (N-sulphated N,O-carboxymethyl chitosans) as primary carriers in vivo was tested using rats. Male Wistar rats (SPF status, approximately 250 g) were obtained from Charles River (NL). The animals were fasted for 16 hours before administration with free access to water. The animals were anesthetized with Hypnorm (fentanyl citrate) and Dormicum (midazolam). The body temperature of the rats was kept at 36-37° C. and was monitored throughout the experiment.
Reviparin LMWH (Reviparin, Knoll, 108 Anti-XaU/mg) solution was prepared in physiological saline at 625 anti Xa U/ml.
S-NOCC was tested at two viscosities 40 and 60 cps (S-NOCC40 and S-NOCC60), representing a lower and higher molecular weight chitinous polymer respectively. The S-NOCCs were dissolved at 3% (w/v) in the reviparin solution to form a viscous gel.
In order to administer the LMWH formulations, a thin Teflon tube (˜1 mm i.d.) was used for the control (no polymer). In order to administer the S-NOCC formulations, a polypropylene tube with i.d. ˜3 mm was used to facilitate the viscous gels for their administration. Both tubes were connected to a syringe.
The abdomen of the animals was opened by an incision and the stomach was moved towards the incision point. A small incision at the stomach was made to allow each tube to be guided via the pylorus to the beginning of the duodenum (first 2-3 cm.). Formulation were administered slowly over 5 min and at +/− 2 ml normalized for the body weight of each animal to assure administration of 5000 Anti-Xa U/kg.
Blood samples, ˜225 μl, were collected from the tail vein capillaries (after incision) in Eppendorf vials containing 25 μl sodium citrate 3.8%. The samples were centrifuged at 13000 rpm for 20 min.
Analysis of samples was performed using the Chromostrate heparin Anti-Xa assay (Organon Teknika, NL). […] The release of pNA was measured by an end-point method at 405 nm in an EL808 ultra microplate reader (Biotek Instruments Inc.). […]

A further data set has as its system Caco-2 cells. The experiment in a line: TEER of Caco-2 cells treated with sulphated chitinous polymers. In kind it is cell-based. The procedure: The Caco-2 intestinal epithelial cells used in this example form apically tight junctions that seal the paracellular pathways. Disruption of the tight junctions' barrier leads to increased paracellular permeability of hydrophilic drugs that are poorly absorbed across the intestine. The integrity of the tight junctions can be determined by measuring decreases in the transepithelial electrical resistance (TEER) when the tight junctions are opened.
Caco-2 cell cultures were seeded initially from cryovials (stored in liquid nitrogen) to flasks and treated with trypsin. After trypsin treatment, cells were seeded on the Costar Transwell filters (24-well plates, Costar Europe, Badhoevedorp, The Netherlands) at a seeding density of 10^4 cells/cm^2. Dulbecco's Modified Eagle's Medium (DMEM, Sigma, Bornem; Belgium; pH=7.4), supplemented with 1% nonessential amino acids, 10%, fetal calf serum (Hyclone, Greiner, The Netherlands), benzyl-penicillin G (160 U/ml) and streptomycin sulfate (100 μg/ml) (Sigma) was used as culture medium, and was added to both the donor and the acceptor compartment. […]
S-OCC(N-sulphated O-carboxymethyl chitosan), S-NOCC(N-sulphated N,O-carboxymethyl chitosan), and S-SAN (N-sulphated chitosan) were applied on the Caco-2 cell cultures and TEER was measured for 4 hours. […] The TEER was also recorded at 24 hrs after application to investigate the viability of the monolayers.

Data on three substances can be found in patent US7265097B2, “Methods of drug delivery using sulphated chitinous polymers” (Chitogenics, Inc., priority 2002, dated 2007).

Take “N-sulphated N,O-carboxymethyl chitosan [S-NOCC40]”: in data set [1], the “absorption of the LMWH (plasma anti-Xa level, relative to antithrombotic level)” value is given as at least 0.2 Anti-Xa U/ml and the “time over which absorption of LMWH was sustained” value worked out at 6 h.
In the case of Reviparin [reference compound], the “intestinal absorption of LMWH” value in data set [1] is listed as “limited”.
For the substance Sulphated Chitosan [S-SAN], the “disruption of the tight junctions between Caco-2 epithelial cells” value with Caco-2 cells was “able to effectively disrupt the tight junctions”.
